Measurements taken from patent publication US8937086B2, “Compounds for the treatment of pathologies associated with aging and degenerative disorders” (University of Pittsburgh—Of the Commonwealth System of …, priority 2008, dated 2015).
Entries after “also recorded” stand apart in the source; their conditions may differ.

Legend:
[1] = system: Ercc1^−/− primary MEF; assay: γH2AX immunostaining of oxidatively stressed primary MEF; format: cell-based, mouse; details: 20% oxygen
Protocol: FIG. 13A-B. γH2AX immunostaining of Ercc1^−/− primary MEF grown at 20% oxygen to induce oxidative stress. Phosphorylated H2AX (γH2AX is a marker of cellular senescence and DNA damage. The MEF cells were either treated with XJB-5-131 (A) or E71-58 (B), fewer cells stained positively for γH2AX.
(§1) To assess the impact of XJB-5-131 at a cellular level, a number of experiments were carried out using mouse embryonic fibroblasts (“MEF”) cells harvested from Ercc1^−/− mouse embryos.
Next, the abilities of these two compounds, as well as XJB-5-131 and JP4-039, each at a concentration of 1 μM, were tested for their ability to prevent cellular senescence in cell cultures prepared, and oxidatively stressed, as in the preceding paragraph. Treated as well as untreated cells were, after 48 hours, immunostained for γ-H2AX, a marker of DNA double-strand breaks as well as cellular senescence.

[2] = Solubility (statement); format: physicochemical
Text: Compounds as set forth herein may be administered in a suitable pharmaceutical carrier (e.g. sterile water, normal saline, phosphate buffered saline, etc.). Not by way of limitation, inhibitors may be administered as a solution, as a suspension, in solid form, in a sustained release formulation, in a topical cream formulation, etc. In particular non-limiting examples, an inhibitor may be incorporated into a microcapsule, nanoparticle or liposome.

[3] = system: Ercc1^−/Δ mice; assay: Healthspan of progeroid Ercc1-/Δ mice treated with compound vs sibling given vehicle; format: in vivo, mouse
Text: FIG. 7. Experimental system for determining the impact of a therapeutic compound on the healthspan of Ercc1^−/Δ mice with accelerated aging. Transgenic mice or mutant animals were born from heterozygous crossings. Only litters with two Ercc1^−/Δ mice were enrolled in the study so that siblings could be used to assess the effect of a therapeutic compound, XJB-5-131 vs. vehicle in a pair-wise comparison. Treatments were initiated before the mice became symptomatic. The age at onset of progeroid symptoms were measured biweekly by an investigator blinded to the treatment of the mice.
(§2) To assess the effectiveness of XJB-5-131 in inhibiting degeneration and/or signs of aging and age-related degenerative diseases, the compound was administered, over a 18-21 week period, to progeroid Ercc1^−/Δ mice, at a dose of 2 mg/kg in sunflower seed oil carrier (to promote solubility) administered intraperitoneally three times per week (FIG. 7). Sunflower seed oil was administered to twin Ercc1^−/Δ mice according to the same schedule as a control. The treated and control mice were monitored twice a week for weight and symptom/sign development.

[4] = system: Ercc1^−/cond; K14-Cre mice; assay: UV-induced photoaging / sunburn of skin, topical cream; format: in vivo, mouse
Protocol: FIG. 10A-D. (A) Effects of (photo)aging in Ercc1^−/Δ mice either treated with XJB-5-131 (80 μg emulsified in a topical cream) or cream only according to the protocol shown in FIG. 7. The duration of treatment of mice in this figure was daily for five days post-UV irradiation. (B) Compounds as disclosed herein protect skin from photoaging by improving keratin production. Skin of Ercc1^−/cond; K14-Cre mice (missing ERCC1-XPF expression only in the skin) were treated with 20 J/m2 (half of the minimal erythemal dose) five times per week for 10 weeks to induce photoaging of the skin. Immediately after UV exposure, XJB-5-131 was applied (80 μg in 50 μL of cream) using a cotton applicator. Twenty-four hours after the last treatment, mice were euthanized and skin harvested for histopathologic examination. Skin sections were immunostained for keratin (red), DNA to reveal nuclei (blue) and actin (green). (C) Compounds as disclosed herein protect skin from inflammation in response to ultraviolet radiation. Skin of Ercc 1^−/cond; K14-Cre mice (missing ERCC1-XPF expression only in the skin) were treated with 500 J/m2 (12.5× the minimal erythemal dose) to induce erythema. Immediately after UV exposure, XJB-5-131 was applied (80 μg in 50 μL of cream) using a cotton applicator. Twenty-four hours after treatment, mice were euthanized and skin harvested for histopathologic examination. Skin sections were immunostained for keratin (red), DNA to reveal nuclei (blue) and actin (green). The thickness of the epidermal layer (indicated by the white bracket) is less in mice treated with XJB-5-131 than in mice treated with cream alone. (D) Compounds as disclosed herein reduce epidermal atrophy. Old (>24 months) normal mice were shaved and their skin treated with JP4-039 (450 μg in 50 μL of cream) or vehicle (cream) only five times per week for 10 weeks. Twenty-four hours after the last treatment, mice were euthanized and skin harvested for histopathologic examination. Skin sections were stained for DNA to reveal nuclei (blue) and actin (green).
As a measure of the effect of XJB-5-131 on photoaging or sun-induced skin changes, treated and control Ercc1^−/cond. K 14-Cre mice, which are missing ERCC1 only in the skin, were shaved, treated with a depilatory, then irradiated with UV-B light to induce sunburn (500 J/m2, the […] erythemal dose). Subsequently, the mice were treated with XJB-5-131 (80 μg) emulsified in a cream daily for five days.

[5] = Body weight / tolerability in treated Ercc1-/Δ mice; format: in vivo, mouse; details: FIG. 11A-B; weight versus time
Protocol: FIG. 11A-B. Weights as a function of age of (A) male and (B) female Ercc1^−/Δ mice either treated with XJB-5-131 or vehicle (sunflower seed oil) according to the protocol shown in FIG. 7.
as §2, §1

[6] = system: R6/2 mice; assay: Rotarod motor co-ordination in Huntington's disease model; format: in vivo, mouse; details: 2 mg/kg i.p. three times per week from 5 weeks of age; at 6 and 7 weeks of age; vs untreated mutant animals
Protocol: FIG. 19. XJB-5-131 preserved motor function in a mouse model of Huntington's disease. Five R6/2 mice, which model Huntington's disease, were treated three times per week with 2 mg/kg XJB-5-131 beginning at 5 weeks of life according to the scheme in FIG. 7. Motor function was assessed weekly by measuring the time animals were able to remain balanced on a rotarod, according to standard methods.
Huntington's disease is a fatal autosomal dominant neurodegenerative disease. The prevalence of Huntington's disease is four to seven in 100 000 and it typically develops in mid-life. The symptoms involve psychiatric, motor and cognitive disturbances, and weight loss. […] Mutant huntingtin forms insoluble aggregates that accumulate in the cytoplasm and nucleus of cells, disrupting neuron function. R6/2 mice express exon 1 of the human huntingtin gene, containing 150 CAG repeats. Consequently, the mice develop neurological symptoms that resemble many of those seen in Huntington's disease, including deficits of motor co-ordination, altered locomotor activity, impaired cognitive performance and seizures. Symptoms begin by week 3-4 and are progressive. […] Motor co-ordination was measured using a rotarod, after the mice were conditioned to the apparatus.

[7] = system: primary MEF from Ercc1^−/− mouse embryos; assay: p16 immunofluorescence (irreversible cellular senescence) in MEF; format: cell-based; details: 1 μM, 48 hours, 20% oxygen; vs untreated cells
Protocol: FIG. 17. Levels of p16, a marker of irreversible cellular senescence, in MEF cells prepared from Ercc1^−/− mice, where the MEF cells were either treated with JP4-039 (10 μM dissolved in media) or media alone for 48 hours prior to fixing and immunostaining of cells.
To test the protective activity of JP4-039, cultures of primary MEF were prepared from Ercc1^−/− mouse embryos and grown under 20% oxygen (ambient air), which creates oxidative stress in these cells that are hypersensitive to the reactive oxygen species. The cells were then either treated with a concentration of 1 μM of XJB-5-131, JP4-039, JED-E71-37 or JED-E71-58, or left untreated, and then after 48 hours the level of p16, a marker of irreversible cellular senescence, was measured by immunofluorescence staining. […] Furthermore, in vivo, JP4-039 reversed epidermal atrophy, by increasing proliferation of keratinocytes (FIG. 10D). Thus JP4-039 was efficacious in vitro and in vivo for reducing/reversing age-related degenerative changes.

[8] = system: MEF cells harvested from Ercc1^−/− mouse embryos; assay: SA-β galactosidase staining (cellular senescence) in MEF; format: cell-based; details: 500 nM in media, ambient oxygen, 48 hours; vs media only
Protocol: FIG. 12. SA-β galactosidase (a marker of cellular senescence) staining in mouse embryonic fibroblast (“MEF”) cells prepared from Ercc1^−/− mice, where the MEF cells were either treated with XJB-5-131 ([…]) or media alone continuously for 48 hours prior to fixing and staining the cells.
as §1

[9] = system: MEF cells prepared from Ercc1^−/− mice; assay: Apoptosis in MEF cells; format: cell-based, mouse; details: 500 nM in media, 48 hours; vs media alone
Protocol: FIG. 14. Apoptosis in MEF cells prepared from Ercc1^−/− mice, where the MEF cells were either treated with XJB-5-131 (500 nM dissolved in media) or media alone continuously for 48 hours prior to fixing and staining the cells.
as §1

[10] = acute or chronic photoaging, 80 μg in 50 μL of cream

SMILES	γ-H2AX immunostaining (prevention of cellular senescence) ([1]; 1 μM, 48 hours, vs untreated)	γH2AX foci / cells staining positively for γH2AX ([1]; FIG. 13, concentration not stated)	solubility [2]	overall aging score (relative age at onset of progeroid symptoms vs sibling on oil) ([3]; 2 mg/kg i.p. in sunflower seed oil, three times per week, 18-21 weeks)	onset of progeroid symptoms and aging pathologies ([3]; 2 mg/kg i.p. three times per week)	symptoms of accelerated aging marked with asterisk (dystonia, ataxia, muscle wasting, decreased spontaneous activity or lethargy), age at onset ([3]; FIG. 8, vs vehicle only)	neurodegeneration and muscle wasting in twin mice ([3]; FIG. 9A, three times per week from 5 weeks of age, vs sibling on vehicle)	general appearance of twin mice ([3]; FIG. 9A, vs sibling on vehicle)	glycosaminoglycan in intervertebral discs, more relative to control mice ([3]; FIG. 9B, vs sunflower seed oil)	neurodegeneration in brain/cerebellum (GFAP immunostaining) ([3]; FIG. 9C, vs siblings on vehicle only)	insulin-producing β-islet cells in pancreas ([3]; FIG. 9D, H&E sections)	thickness of the epidermal layer after UV ([4]; 500 J/m2, 80 μg in 50 μL of cream, 24 h, vs cream alone)	skin appearance after UV-B sunburn ([4]; 500 J/m2 UV-B, 80 μg in cream daily for five days, vs cream only)	inflammation of skin after UV [4, 10]	keratin in skin sections (immunofluorescence) [4, 10]	weight loss as a result of treatment [5]	motor co-ordination (time on rotarod) [6]	level of p16 [7]	amount of SA-β galactosidase staining [8]	amount of apoptosis [9]
CC(C)C[C@@H](/C=C/[C@H](Cc1ccccc1)C(=O)N1CCC[C@H]1C(=O)N[C@H](C(=O)N[C@@H](CCCNC(=O)OCc1ccccc1)C(=O)NC1CC(C)(C)N([O])C(C)(C)C1)C(C)C)NC(=O)OC(C)(C)C [XJB-5-131]	less effective	reduce; also recorded: fewer	sparingly soluble	significantly improved	delayed the onset	significantly delayed	reduced and less	improved	approximately 30%	significantly reduced; also recorded: Decreased	preserved; also recorded: Preservation	less	much more smooth and healthy	reduced	improved	did not cause weight loss	significantly better	less effective	notably less	did not reduce
CC1(C)CCCC(C)(C)N1[O] [TEMPO, 2,2,6,6-tetramethylpiperidine-N-oxyl, reference compound]	–	–	–	–	–	–	–	–	–	–	–	–	–	–	–	cause weight loss	–	–	–	–
